Measured values: patent US20250009614A1 (priority 2021, published 2025)

Assays:
A549 cells = assay: In-vitro cytotoxicity, MTT assay; conditions: 24 hours
human skin = assay: Skin irritancy patch test; assay type: in vivo; conditions: occluded patch, neat
Experimental: The objective of the study was to determine skin irritancy potential of the nanoemulsion hand sanitizer products of the invention. The study was conducted according to internationally recognized Good Clinical Practice Guidelines. Permission to conduct the study was covered under the protocol approval for project MREC/H/48/2014: CR of the Research, Ethics and Publications Committee of the Sefako Makgatho Health Sciences University. Recruitment for the study began two weeks before the commencement of the study and approximately 25 panellists were recruited according to the study requirements, to commence the study with a test panel of 20. Potential panellists attended a series of study briefings held during the week prior to the study. Panellists were verbally briefed and given the Study Instructions, Informed Consent forms (plus coloured duplicate copies of the latter).
Panellists were given specifically timed appointments for the whole study. Unless otherwise stated in the summary, twenty adult female volunteers were used, of whom five had sensitive skins (as determined from the subject enrolment questionnaire). Signed consent forms were obtained from all subjects. Subjects with a history of clinical dermal abnormalities or who are taking or using medication which may affect test results through mediation of the inflammatory response were excluded. […]
Briefly, the study procedure was as follows; Controls and products were applied to the inner forearm of each volunteer in a randomized, blinded pattern at zero hours and repeated on the same position at 24 hours. A measured volume of control or pieces of product was placed in the respective chamber and the chamber attached to the forearm. […]
The protocol uses 1% sodium lauryl sulphate (SLS) solution as a positive control and de-ionized water as a negative control. A measured amount of 0.02 ml of sodium lauryl sulphate and de-ionized water was applied. […]
The maximum irritancy (as calculated by the mean visual score+one standard deviation of the visual score) for the products and the controls is tabulated below. […]

HIV-1 pseudovirus = conditions: infection of 100 TCID50; cited from earlier work

Molecule | cytotoxicity (in words) (A549 cells) | Maximum value (mean visual score + sd) (human skin; 0-3 scale, 20 panellists) | Conclusion (irritancy category) (human skin) | Time point (hours) of maximum value (human skin) | reported IC50 (as mass) (HIV-1 pseudovirus)
C=C(C)[C@@H]1CCC(C)=C[C@H]1c1c(O)cc(CCCCC)cc1O [CBD, cannabidiol] | significant toxicity | – | – | – | –
CCCCCCCCCCCCOS(=O)(=O)[O-].[Na+] [H, Sodium Lauryl Sulphate] | – | 2.18 | Irritant (product mean visual score+SD >1.5—Product is irritant) | 72 h | –
cyanovirin-N (protein, UniProt P81180 1-101, looked up) Cyanovirin-N: LGKFSQTCYNSAIQGSVLTSTCERTNGGYNTSSIDLNSVIENVDGSLKWQPSNFIETCRNTQLAGSSELAAECKTRAQQFVSTKINLDDHIANIDGTLKYE | significant toxicity | – | – | – | 22 to 340 µg
